Here are results for 18 molecules from patent publication US20250250231A1, “NOVEL SUBSTITUTED 4-AMINO-4-OXO-BUT-2-ENYL DERIVATIVES, PROCESSES FOR THEIR PREPARATION AND THERAPEUTIC USES THEREOF” (SANOFI, priority 2022, published 2025).

The structures appear in SMILES notation. Like-named read-outs stand apart in the source and are kept apart here.

Common to all, as to assay type: cell-based
One assay relates to HCC1428-LTED cells. Put plainly: In vitro anti-proliferation assay (CellTiter-Glo viability), HCC1428-LTED cells. The settings on record: viability on day 8, relative IC50, read-out: HCC 1428 IC50. As for the experimental part:
(§1) Test: In vitro anti-proliferation assay
(§2) Said test involves measuring the in vitro anti-proliferation activity of the compounds of the Table 1a.
(§3) The measurements of the anti-proliferation activities were made using MCF7-WT (ATCC), MCF7-Y537S and HCC1428-LTED cells as described hereunder.
(§4) On Day 1, MCF7-WT and MCF7-Y537S (Mol Cancer Ther. 2021 20(2):250-262), and HCC1428-LTED (J Clin Invest. 2010; 120(7):2406-2413) cells, were seeded at 2000 (WT and LTED) and 500 (Y537S) cells/well in phenol red free IMEM (Corning, 110-026-CV) with 5% Charcoal stripped-FBS and incubated overnight 37° C. and 5% CO2.
(§5) On day 2, compounds were tested in triplicate in 10-point dose response (1:3 serial dilutions with a top concentration starting 300 nM); DMSO for upper limit (negative control) and staurosporine (1 uM) for lower limit (positive control) were also included. MCF7-WT cells were then supplemented with final 0.1 nM b-estradiol. After treating the cells, the assay plates were transferred back in the incubator at 37° C. and 5% CO2.
(§6) On day 8, cell viability was measured per vendor recommendations (CellTiter-Glo, Promega). Relative IC50 measurements were calculated as follow using a 4-parameter logistic derived from Levenburg Marquardt algorithm (IDBS XL Model 205 fit within A-base).

Another assay has as its system MCF7-Y537S cells. Put plainly: In vitro anti-proliferation assay (CellTiter-Glo viability), MCF7-Y537S cells. The conditions noted are these: viability on day 8, relative IC50. The protocol: as §1, §2, §3, §4, §5, §6
Another assay relates to MCF7-WT cells. Put plainly: In vitro anti-proliferation assay (CellTiter-Glo viability), MCF7-WT cells. The conditions noted are these: MCF7-WT cells supplemented with 0.1 nM b-estradiol, viability on day 8, relative IC50. The protocol: as §1, §2, §3, §4, §5, §6

In the case of `CN(C)C(=O)/C=C/CN1CC(=Cc2ccc(C3=C(c4ccc(Cl)cc4Cl)CCCc4cc(C(=O)O)ccc43)cc2)C1` [Compound 14, (E)-8-(2,4-dichlorophenyl)-9-(4-((1-(4-(dimethylamino)-4-oxobut-2-en-1-yl)azetidin-3-ylidene)methyl)phenyl)-6,7-dihydro-5H-benzo[7]annulene-3-carboxylic acid], the IC50 in the assay on HCC1428-LTED cells (Homo sapiens, HCC1428, 192 h) is 0.4 nM; in the assay on MCF7-Y537S cells (Homo sapiens, MCF7, 192 h), 0.4 nM; with MCF7-WT cells (Homo sapiens, MCF7, 192 h), 101 nM.

Turning to `CN(C)C(=O)/C=C/CN1CC[C@H](Oc2ccc(C3=C(c4ccc(Cl)cc4F)CCCc4cc(C(=O)O)ccc43)cc2)C1` [Compound 3, (S,E)-8-(4-chloro-2-fluorophenyl)-9-(4-((1-(4-(dimethylamino)-4-oxobut-2-en-1-yl)pyrrolidin-3-yl)oxy)phenyl)-6,7-dihydro-5H-benzo[7]annulene-3-carboxylic acid], the IC50 with HCC1428-LTED cells (Homo sapiens, HCC1428, 192 h) stood at 0.7 nM; with MCF7-Y537S cells (Homo sapiens, MCF7, 192 h) it was 167 nM; in the assay with MCF7-WT cells (Homo sapiens, MCF7, 192 h) it was 24 nM.

As for `CN(C)C(=O)/C=C/CN1CC[C@H](Oc2ccc(C3=C(c4ccc(Cl)cc4Cl)CCc4cc(C(=O)O)ccc43)cc2)C1` [Compound 25, (S,E)-6-(2,4-dichlorophenyl)-5-(4-((1-(4-(dimethylamino)-4-oxobut-2-en-1-yl)pyrrolidin-3-yl)oxy)phenyl)-7,8-dihydronaphthalene-2-carboxylic acid], the IC50 is 17 nM with HCC1428-LTED cells (Homo sapiens, HCC1428, 192 h); at least 500 nM in the assay on MCF7-Y537S cells (Homo sapiens, MCF7, 192 h); 300 nM in the assay on MCF7-WT cells (Homo sapiens, MCF7, 192 h).

As to `Cc1ccc(C2=C(c3ccc(O[C@H]4CCN(C/C=C/C(=O)N(C)C)C4)cc3)c3ccc(C(=O)O)cc3CCC2)c(F)c1` [Compound 5, (S,E)-9-(4-((1-(4-(dimethylamino)-4-oxobut-2-en-1-yl)pyrrolidin-3-yl)oxy)phenyl)-8-(2-fluoro-4-methylphenyl)-6,7-dihydro-5H-benzo[7]annulene-3-carboxylic acid], the IC50 in the assay with HCC1428-LTED cells (Homo sapiens, HCC1428, 192 h) stood at 0.2 nM; in the assay with MCF7-Y537S cells (Homo sapiens, MCF7, 192 h), 76 nM; with MCF7-WT cells (Homo sapiens, MCF7, 192 h) it was 3 nM.

`CN(C)C(=O)/C=C/CN1CC[C@H](Oc2ccc(C3=C(c4ccc(Cl)cc4Cl)CCCc4ccccc43)cc2)C1` [Compound 26, (S,E)-4-(3-(4-(8-(2,4-dichlorophenyl)-6,7-dihydro-5H-benzo[7]annulen-9-yl)phenoxy)pyrrolidin-1-yl)-N,N-dimethylbut-2-enamide]: the IC50 in the assay with HCC1428-LTED cells (Homo sapiens, HCC1428, 192 h) was found to be 0.4 nM; in the assay with MCF7-Y537S cells (Homo sapiens, MCF7, 192 h), 193 nM; in the assay on MCF7-WT cells (Homo sapiens, MCF7, 192 h) it was 21 nM.

For the molecule `CN(C)C(=O)/C=C/CN1CC[C@@H](Oc2ccc(C3=C(c4ccc(Cl)cc4Cl)CCCc4cc(C(=O)O)ccc43)cc2)C1` [Compound 15, (R,E)-8-(2,4-dichlorophenyl)-9-(4-((1-(4-(dimethylamino)-4-oxobut-2-en-1-yl)pyrrolidin-3-yl)oxy)phenyl)-6,7-dihydro-5H-benzo[7]annulene-3-carboxylic acid], the IC50 in the assay with HCC1428-LTED cells (Homo sapiens, HCC1428, 192 h) came to 5 nM; in the assay with MCF7-Y537S cells (Homo sapiens, MCF7, 192 h) it was 186 nM; in the assay with MCF7-WT cells (Homo sapiens, MCF7, 192 h), 53 nM.

As to `CN(C)C(=O)/C=C/CN1CCC(Cc2ccc(C3=C(c4ccc(Cl)cc4Cl)CCCc4cc(C(=O)O)ccc43)cc2)C1` (single isomer, unassigned; isomer 1) [Compound 18, (E)-8-(2,4-dichlorophenyl)-9-(4-((1-(4-(dimethylamino)-4-oxobut-2-en-1-yl)pyrrolidin-3-yl)methyl)phenyl)-6,7-dihydro-5H-benzo[7]annulene-3-carboxylic acid, Isomer 1], the IC50 with HCC1428-LTED cells (Homo sapiens, HCC1428, 192 h) was 0.3 nM; in the assay on MCF7-Y537S cells it was 59 nM; in the assay with MCF7-WT cells, 26 nM.

For `CN(C)C(=O)/C=C/CNCCOc1ccc(C2=C(c3ccc(Cl)cc3Cl)CCCc3cc(C(=O)O)ccc32)cc1` [Compound 22, (E)-8-(2,4-dichlorophenyl)-9-(4-(2-((4-(dimethylamino)-4-oxobut-2-en-1-yl)amino)ethoxy)phenyl)-6,7-dihydro-5H-benzo[7]annulene-3-carboxylic acid], the IC50 in the assay with HCC1428-LTED cells (Homo sapiens, HCC1428, 192 h) came to 0.6 nM; in the assay with MCF7-Y537S cells (Homo sapiens, MCF7, 192 h), 184 nM; in the assay with MCF7-WT cells (Homo sapiens, MCF7, 192 h), 11 nM.

Take `CN(C)C(=O)/C=C/CN1CCC(Cc2ccc(C3=C(c4ccc(Cl)cc4Cl)CCCc4cc(C(=O)O)ccc43)cc2)C1` (single isomer, unassigned; isomer 2) [Compound 19, (E)-8-(2,4-dichlorophenyl)-9-(4-((1-(4-(dimethylamino)-4-oxobut-2-en-1-yl)pyrrolidin-3-yl)methyl)phenyl)-6,7-dihydro-5H-benzo[7]annulene-3-carboxylic acid, Isomer 2]: the IC50 was 0.2 nM in the assay on HCC1428-LTED cells, 20.7 nM with MCF7-Y537S cells and 9 nM with MCF7-WT cells.

With `CN(C)C(=O)/C=C/CN1CC(Nc2ccc(C3=C(c4ccc(Cl)cc4Cl)CCCc4cc(C(=O)O)ccc43)cc2)C1` [Compound 21, (E)-8-(2,4-dichlorophenyl)-9-(4-((1-(4-(dimethylamino)-4-oxobut-2-en-1-yl)azetidin-3-yl)amino)phenyl)-6,7-dihydro-5H-benzo[7]annulene-3-carboxylic acid], the IC50 was 2.1 nM with HCC1428-LTED cells (Homo sapiens, HCC1428, 192 h); at least 500 nM in the assay on MCF7-Y537S cells (Homo sapiens, MCF7, 192 h); 28 nM in the assay on MCF7-WT cells (Homo sapiens, MCF7, 192 h).

On to `COc1ccc(C2=C(c3ccc(O[C@H]4CCN(C/C=C/C(=O)N(C)C)C4)cc3)c3ccc(C(=O)O)cc3CCC2)c(F)n1` [Compound 10, (S,E)-9-(4-((1-(4-(dimethylamino)-4-oxobut-2-en-1-yl)pyrrolidin-3-yl)oxy)phenyl)-8-(2-fluoro-6-methoxypyridin-3-yl)-6,7-dihydro-5H-benzo[7]annulene-3-carboxylic acid], for which the IC50 was 0.3 nM in the assay with HCC1428-LTED cells (Homo sapiens, HCC1428, 192 h); at least 500 nM with MCF7-Y537S cells (Homo sapiens, MCF7, 192 h); 8 nM with MCF7-WT cells (Homo sapiens, MCF7, 192 h).

As to `CN(C)C(=O)/C=C/CN1CC(Oc2ccc(C3=C(c4ccc(Cl)cc4Cl)CCCc4cc(C(=O)O)ccc43)cc2)C1` [Compound 12, (E)-8-(2,4-dichlorophenyl)-9-(4-((1-(4-(dimethylamino)-4-oxobut-2-en-1-yl)azetidin-3-yl)oxy)phenyl)-6,7-dihydro-5H-benzo[7]annulene-3-carboxylic acid], the IC50 is 3 nM in the assay with HCC1428-LTED cells (Homo sapiens, HCC1428, 192 h); at least 500 nM with MCF7-Y537S cells (Homo sapiens, MCF7, 192 h); 126 nM in the assay on MCF7-WT cells (Homo sapiens, MCF7, 192 h).

On to `CN(C)C(=O)/C=C/CN1CC[C@H](Oc2ccc(C3=C(c4ccc(Cl)cc4Cl)CCCc4cc(O)ccc43)cc2)C1` [Compound 23, (S,E)-4-(3-(4-(8-(2,4-dichlorophenyl)-3-hydroxy-6,7-dihydro-5H-benzo[7]annulen-9-yl)phenoxy)pyrrolidin-1-yl)-N,N-dimethylbut-2-enamide], for which the IC50 in the assay with HCC1428-LTED cells (Homo sapiens, HCC1428, 192 h) was 0.03 nM; in the assay with MCF7-Y537S cells (Homo sapiens, MCF7, 192 h) it was 23 nM; with MCF7-WT cells (Homo sapiens, MCF7, 192 h), 26 nM.

With `CN(C)C(=O)/C=C/CN1CC[C@H](Oc2ccc(C3=C(c4ccc(Cl)cc4Cl)CCOc4cc(C(=O)O)ccc43)cc2)C1` [Compound 24, (S,E)-4-(2,4-dichlorophenyl)-5-(4-((1-(4-(dimethylamino)-4-oxobut-2-en-1-yl)pyrrolidin-3-yl)oxy)phenyl)-2,3-dihydrobenzo[b]oxepine-8-carboxylic acid], the IC50 in the assay on HCC1428-LTED cells (Homo sapiens, HCC1428, 192 h) was 4.4 nM; in the assay on MCF7-Y537S cells (Homo sapiens, MCF7, 192 h) it was at least 500 nM; in the assay on MCF7-WT cells (Homo sapiens, MCF7, 192 h), 160 nM.

Regarding `CN(C)C(=O)/C=C/CN1CC[C@@H](Nc2ccc(C3=C(c4ccc(Cl)cc4Cl)CCCc4cc(C(=O)O)ccc43)cc2)C1` [Compound 17, (R,E)-8-(2,4-dichlorophenyl)-9-(4-((1-(4-(dimethylamino)-4-oxobut-2-en-1-yl)pyrrolidin-3-yl)amino)phenyl)-6,7-dihydro-5H-benzo[7]annulene-3-carboxylic acid], the IC50 in the assay on HCC1428-LTED cells (Homo sapiens, HCC1428, 192 h) was 1 nM; with MCF7-Y537S cells (Homo sapiens, MCF7, 192 h) it was 138 nM; in the assay on MCF7-WT cells (Homo sapiens, MCF7, 192 h), 10 nM.

In the case of `CN(C)C(=O)/C=C/CN1CC[C@H](Oc2ccc(C3=C(c4ccc(F)cc4Cl)CCCc4cc(C(=O)O)ccc43)cc2)C1` [Compound 2, (S,E)-8-(2-chloro-4-fluorophenyl)-9-(4-((1-(4-(dimethylamino)-4-oxobut-2-en-1-yl)pyrrolidin-3-yl)oxy)phenyl)-6,7-dihydro-5H-benzo[7]annulene-3-carboxylic acid], the IC50 with HCC1428-LTED cells (Homo sapiens, HCC1428, 192 h) was 0.4 nM; in the assay on MCF7-Y537S cells (Homo sapiens, MCF7, 192 h) it was at least 500 nM; in the assay with MCF7-WT cells (Homo sapiens, MCF7, 192 h) it was 10 nM.

Consider `CN(C)C(=O)/C=C/CN1CC[C@H](Oc2ccc(C3=C(c4ccc(Cl)cc4Cl)CCCc4cc(C(=O)O)ccc43)cc2)C1` [Compound 1, (S,E)-8-(2,4-dichlorophenyl)-9-(4-((1-(4-(dimethylamino)-4-oxobut-2-en-1-yl)pyrrolidin-3-yl)oxy)phenyl)-6,7-dihydro-5H-benzo[7]annulene-3-carboxylic acid], for which the IC50 is 0.7 nM in the assay with HCC1428-LTED cells (Homo sapiens, HCC1428, 192 h); at least 500 nM in the assay on MCF7-Y537S cells (Homo sapiens, MCF7, 192 h); 14 nM in the assay with MCF7-WT cells (Homo sapiens, MCF7, 192 h).

As to `CN(C)C(=O)/C=C/CN1CC[C@H](Oc2ccc(C3=C(c4ccc(Cl)cc4Cl)CCSc4cc(O)ccc43)cc2)C1` [Compound 27, (S,E)-4-(3-(4-(4-(2,4-dichlorophenyl)-8-hydroxy-2,3-dihydrobenzo[b]thiepin-5-yl)phenoxy)pyrrolidin-1-yl)-N,N-dimethylbut-2-enamide], the IC50 amounted to 0.02 nM in the assay with HCC1428-LTED cells (Homo sapiens, HCC1428, 192 h); 33 nM with MCF7-Y537S cells (Homo sapiens, MCF7, 192 h); 2.9 nM in the assay with MCF7-WT cells (Homo sapiens, MCF7, 192 h).
